“And” between values parts separate entries of the source, which are not always exact repeats. Equal entries are not always repeated.
How the values were obtained:
[1] = Cytotoxicity assay (CellTiter-Glo, 72 h), MESO-1; assay type: cell-based; conditions: human, MESO-1 malignant pleural mesothelioma cells, raw replicate data, read-out: MESO1 viability (%)
How it was run: (§1)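 1000 cells/well; 4 h settle, then 2-fold serial dilutions (0.5% DMSO final), 72 h, 37 °C/5% CO2. Read-out: CellTiter-Glo luminescence. Media: RPMI1640 + 10% FBS (Jurkat, MESO-1; Jurkat also Glutamax), DMEM + 10% FBS (SKOV-3).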

[2] = Cytotoxicity assay (CellTiter-Glo, 72 h), SKOV-3; assay type: cell-based, human; conditions: human
How it was run: as §1

[3] = system: human ovarian adenocarcinoma SKOV-3 cells; assay: Cytotoxicity assay (CellTiter-Glo, 72 h), SKOV-3; assay type: cell-based; conditions: raw replicate data
How it was run: as §1

COC1CC2CCC(C)C(O)(O2)C(=O)C(=O)N2CCCCC2C(=O)OC(C(C)CC2CCC(O)C(OC)C2)CCC(C)C=C(C)C(O)C(OC)C(=O)C(C)CC(C)C=CC=CC=C1C (stereo not shown) [Compound 16, 32-desketorapamycin]
viability at 72 h, 0.0244141 uM ([1]; conc 0.0244141 uM): 74.4%
viability at 72 h, 0.0488281 uM ([1]; conc 0.0488281 uM): 72.5%
viability at 72 h, 0.0976562 uM ([1]; conc 0.0976562 uM): 78.4%
viability at 72 h, 0.195312 uM ([1]; conc 0.195312 uM): 68.5%
viability at 72 h, 0.390625 uM ([1]; conc 0.390625 uM): 78.4%
viability at 72 h, 0.78125 uM ([1]; conc 0.78125 uM): 66.1%
viability at 72 h, 1.5625 uM ([1]; conc 1.5625 uM): 73.1%
viability at 72 h, 3.125 uM ([1]; conc 3.125 uM): 67.9%
viability at 72 h, 6.25 uM ([1]; conc 6.25 uM): 67.3%
viability at 72 h, 12.5 uM ([1]; conc 12.5 uM): 59.2%
viability at 72 h, 25 uM ([1]; conc 25 uM): 53.2%
viability at 72 h, 50 uM ([1]; conc 50 uM): 31.7%
viability at 72 h ([2]; SKOV-3 cells (ovarian adenocarcinoma), SKOV-3 cells, 72 h, read-out: Plateau level of cell viability in the dose-response curve): ~60%
viability at 72 h, 9.53674e-05 uM ([2]; SKOV-3 cells (ovarian adenocarcinoma), conc 9.53674e-5 uM, raw replicate data, read-out: SKOV3 viability (%)): 102%
viability at 72 h, 0.000190735 uM ([2]; SKOV-3 cells (ovarian adenocarcinoma), conc 0.000190735 uM, raw replicate data, read-out: SKOV3 viability (%)): 96.2%
viability at 72 h, 0.00038147 uM ([2]; SKOV-3 cells (ovarian adenocarcinoma), conc 0.00038147 uM, raw replicate data, read-out: SKOV3 viability (%)): 97.4%
viability at 72 h, 0.000762939 uM ([2]; SKOV-3 cells (ovarian adenocarcinoma), conc 0.000762939 uM, raw replicate data, read-out: SKOV3 viability (%)): 84.9%
viability at 72 h, 0.00152588 uM ([2]; SKOV-3 cells (ovarian adenocarcinoma), conc 0.00152588 uM, raw replicate data, read-out: SKOV3 viability (%)): 77.3%
viability at 72 h, 0.00305176 uM ([2]; SKOV-3 cells (ovarian adenocarcinoma), conc 0.00305176 uM, raw replicate data, read-out: SKOV3 viability (%)): 68.9%
viability at 72 h, 0.00610352 uM ([2]; SKOV-3 cells (ovarian adenocarcinoma), conc 0.00610352 uM, raw replicate data, read-out: SKOV3 viability (%)): 59%
viability at 72 h, 0.012207 uM ([2]; SKOV-3 cells (ovarian adenocarcinoma), conc 0.012207 uM, raw replicate data, read-out: SKOV3 viability (%)): 61.7%
viability at 72 h, 0.0244141 uM ([2]; SKOV-3 cells (ovarian adenocarcinoma), conc 0.0244141 uM, raw replicate data, read-out: SKOV3 viability (%)): 60%
viability at 72 h, 0.0488281 uM ([2]; SKOV-3 cells (ovarian adenocarcinoma), conc 0.0488281 uM, raw replicate data, read-out: SKOV3 viability (%)): 59.3%
viability at 72 h, 0.0976562 uM ([2]; SKOV-3 cells (ovarian adenocarcinoma), conc 0.0976562 uM, raw replicate data, read-out: SKOV3 viability (%)): 58.2%
viability at 72 h, 0.195312 uM ([2]; SKOV-3 cells (ovarian adenocarcinoma), conc 0.195312 uM, raw replicate data, read-out: SKOV3 viability (%)): 56.3%
viability at 72 h, 0.390625 uM ([2]; SKOV-3 cells (ovarian adenocarcinoma), conc 0.390625 uM, raw replicate data, read-out: SKOV3 viability (%)): 55.6%
viability at 72 h, 12.5 uM ([2]; SKOV-3 cells (ovarian adenocarcinoma), conc 12.5 uM, raw replicate data, read-out: SKOV3 viability (%)): 51.2%
viability at 72 h, 25 uM ([2]; SKOV-3 cells (ovarian adenocarcinoma), conc 25 uM, raw replicate data, read-out: SKOV3 viability (%)): 45.3%
viability at 72 h, 50 uM ([2]; SKOV-3 cells (ovarian adenocarcinoma), conc 50 uM, raw replicate data, read-out: SKOV3 viability (%)): 39.9%
viability at 72 h, 0.78125 uM ([2]; SKOV-3 ovarian adenocarcinoma cells, conc 0.78125 uM, raw replicate data, read-out: SKOV3 viability (%)): 57.3%
viability at 72 h, 1.5625 uM ([2]; SKOV-3 ovarian adenocarcinoma cells, conc 1.5625 uM, raw replicate data, read-out: SKOV3 viability (%)): 55%
viability at 72 h, 3.125 uM ([2]; SKOV-3 ovarian adenocarcinoma cells, conc 3.125 uM, raw replicate data, read-out: SKOV3 viability (%)): 57.8%
viability at 72 h, 6.25 uM ([2]; SKOV-3 ovarian adenocarcinoma cells, conc 6.25 uM, raw replicate data, read-out: SKOV3 viability (%)): 57%
SKOV3 viability (%) ([3]; conc 9.53674e-5 uM): 103.5% and 99.3%
SKOV3 viability (%) ([3]; conc 0.000190735 uM): 92.3% and 95.8%
SKOV3 viability (%) ([3]; conc 0.00038147 uM): 95.4% and 93.0%
SKOV3 viability (%) ([3]; conc 0.000762939 uM): 86.5% and 80.1%
SKOV3 viability (%) ([3]; conc 0.00152588 uM): 73.2% and 83.0%
SKOV3 viability (%) ([3]; conc 0.00305176 uM): 64.2% and 71.1%
SKOV3 viability (%) ([3]; conc 0.00610352 uM): 65.5% and 65.6%
SKOV3 viability (%) ([3]; conc 0.012207 uM): 60.5% and 55.5%
SKOV3 viability (%) ([3]; conc 0.0244141 uM): 61.8% and 57.1%
SKOV3 viability (%) ([3]; conc 0.0488281 uM): 55.9% and 56.4%
SKOV3 viability (%) ([3]; conc 0.0976562 uM): 56.0% and 58.1%
SKOV3 viability (%) ([3]; conc 0.195312 uM): 52.7% and 56.6%
SKOV3 viability (%) ([3]; conc 0.390625 uM): 55.9% and 59.7%
SKOV3 viability (%) ([3]; conc 0.78125 uM): 59.7% and 56.2%
SKOV3 viability (%) ([3]; conc 1.5625 uM): 58.0% and 59.2%
SKOV3 viability (%) ([3]; conc 3.125 uM): 56.1% and 56.8%
SKOV3 viability (%) ([3]; conc 12.5 uM): 53.9% and 55.3%
SKOV3 viability (%) ([3]; conc 25 uM): 51.8% and 53.0%
SKOV3 viability (%) ([3]; conc 50 uM): 34.7% and 38.6%

Reference: paper PMC7419507, “In vitro Cas9-assisted editing of modular polyketide synthase genes to produce desired natural product derivatives” (Nature Communications, 2020)
